Like-named read-outs stand apart in the source and are kept apart here.

Assay [1] relates to MLKL phosphorylation in HT29-L23 human colorectal adenocarcinoma cells. Briefly: MLKL Phosphorylation High-Content Assay. The format is cell-based. Particulars: Homo sapiens. Summed up:
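Cells incubated six hours at 37° C., then phospho-MLKL (S358) immunostained overnight at 4° C. and imaged by high-content microscopy. Phosphorylation quantified as mean circ-ring average intensity ratio; IC50 and Ymax from 4-parameter logistic fits.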

Assay [2] deals with T1, His-GST-TVMV-hRIPK1(1-324) (Homo sapiens, UniProt Q13546).
T1 construct: The coding region of human RIPK1(1-324) flanked by NdeI site at 5′ end; made in house; host or cells: Spodoptera frugiperda (Sf9) insect cells, baculovirus
T1 sequence (Q13546 1-324): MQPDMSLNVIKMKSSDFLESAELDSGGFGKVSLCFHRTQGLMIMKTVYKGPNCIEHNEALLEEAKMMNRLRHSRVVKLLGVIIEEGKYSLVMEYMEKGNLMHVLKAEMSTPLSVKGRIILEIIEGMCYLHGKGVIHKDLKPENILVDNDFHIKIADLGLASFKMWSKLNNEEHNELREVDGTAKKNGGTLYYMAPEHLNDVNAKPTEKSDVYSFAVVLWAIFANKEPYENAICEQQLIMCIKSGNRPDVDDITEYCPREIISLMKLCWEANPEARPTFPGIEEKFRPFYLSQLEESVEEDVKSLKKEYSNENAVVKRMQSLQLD
Briefly: RIPK1 HTRF Binding Assay.

Setting [3] is: x marks IC50 class 20-200 nM, read-out: pMLKL cell activity 20-200 nM.
Setting [4] is: x marks IC50 class 20-200 nM, read-out: RIPK1 HTRF binding 20-200 nM.
The mark [5] stands for this setting: x marks IC50 class >200 nM, read-out: pMLKL cell activity >200 nM.
Setting [6] is: x marks IC50 class <20 nM, read-out: pMLKL cell activity <20 nM.
Where [7] appears, read: x marks IC50 class <20 nM, read-out: RIPK1 HTRF binding <20 nM.

Take `Cc1nc(C)c(-c2ccn3nc(N)nc3c2)cc1C(=O)NCc1cc(F)ccc1OCC(F)(F)F` [Example 292, 5-(2-amino-[1,2,4]triazolo[1,5-a]pyridin-7-yl)-N-(5-fluoro-2-(2,2,2-trifluoroethoxy)benzyl)-2,6-dimethylnicotinamide]: the IC50 in assay [1] (setting [3]) and in assay [2] (setting [4]) was 20 to 200 nM each time.
`COc1ncc(-c2ccn3nc(N)nc3c2)cc1C(=O)NCc1cccc(OC2CCCC2)c1` [Example 45, 5-{2-Amino-[1,2,4]triazolo[1,5-a]pyridin-7-yl}-N-{[3-(cyclopentyloxy)phenyl]methyl}-2-methoxypyridine-3-carboxamide]: the IC50 in assay [1] (setting [5]) is over 200 nM; in assay [2] (setting [4]) it was 20 to 200 nM.
In the case of `COc1nc(C)c(-c2ccn3nc(N)nc3c2)cc1C(=O)NCc1ccccc1OCC1CCCC1` [Example 207, 5-{2-amino-[1,2,4]triazolo[1,5-a]pyridin-7-yl}-N-{[2-(cyclopentylmethoxy)phenyl]methyl}-2-methoxy-6-methylpyridine-3-carboxamide], the IC50 in assay [1] (setting [6]) and in assay [2] (setting [7]) was under 20 nM in each case.
With `Cc1ncc(C(=O)NCc2cc(OC(F)(F)F)ccc2F)cc1-c1ccn2nc(N)nc2c1` [Example 256, 5-{2-amino-[1,2,4]triazolo[1,5-a]pyridin-7-yl}-N-{[2-fluoro-5-(trifluoromethoxy)phenyl]methyl}-6-methylpyridine-3-carboxamide], the IC50 in assay [1] (setting [5]) was over 200 nM; in assay [2] (setting [4]) it was 20 to 200 nM.
For `COc1nc(C)c(-c2ccn3nc(N)nc3c2)cc1C(=O)NCc1cc(F)cc(F)c1OCC1CC1` [Example 9, 5-{2-Amino-[1,2,4]triazolo[1,5-a]pyridin-7-yl}-N-{[2-(cyclopropylmethoxy)-3,5-difluorophenyl]methyl}-2-methoxy-6-methylpyridine-3-carboxamide], the IC50 in assay [1] (setting [6]) and in assay [2] (setting [7]) was under 20 nM each time.
On to `COc1ncc(-c2ccn3nc(N)nc3c2)cc1C(=O)Nc1cnn(C(c2ccccc2)c2ccccc2)c1` [Example 107, 5-{2-amino-[1,2,4]triazolo[1,5-a]pyridin-7-yl}-N-[1-(diphenylmethyl)-1H-pyrazol-4-yl]-2-methoxypyridine-3-carboxamide], for which the IC50 in assay [1] (setting [5]) was over 200 nM; in assay [2] (setting [4]), 20 to 200 nM.
With `COc1ncc(-c2ccn3nc(N)nc3c2)cc1C(=O)Nc1cnn(C(C)c2ccc(F)cc2)c1` (single isomer, unassigned) [Example 76-2], the IC50 in assay [1] (setting [3]) was 20 to 200 nM; in assay [2] (setting [7]), under 20 nM.
On the same counts, the results for `Cc1ncc(-c2ccn3nc(N)nc3c2)cc1NC(=O)Cc1cc(OC(F)(F)F)ccc1F` [Example 420, N-(5-(2-amino-[1,2,4]triazolo[1,5-a]pyridin-7-yl)-2-methylpyridin-3-yl)-2-(2-fluoro-5-(trifluoromethoxy)phenyl)acetamide] are 20 to 200 nM and under 20 nM.
Consider `COc1nc(C)c(-c2ccn3nc(N)nc3c2)cc1C(=O)NCc1cc(F)cc(F)c1OC1CCOC(C)C1` (centres unmarked) [Example 352, 5-(2-amino-[1,2,4]triazolo[1,5-a]pyridin-7-yl)-N-(3,5-difluoro-2-((2-methyltetrahydro-2H-pyran-4-yl)oxy)benzyl)-2-methoxy-6-methylnicotinamide], for which the IC50 in assay [1] (setting [3]) is 20 to 200 nM; in assay [2] (setting [7]) it was under 20 nM.
The matching figures for `CNc1ncc(-c2ccn3nc(N)nc3c2)cc1C(=O)NCCC(C)c1ccccc1` (centres unmarked) [Example 70, 5-{2-Amino-[1,2,4]triazolo[1,5-a]pyridin-7-yl}-2-(methylamino)-N-(3-phenylbutyl)pyridine-3-carboxamide]: 20 to 200 nM and under 20 nM.
As for `COc1nnc(-c2ccn3nc(N)nc3c2)cc1C(=O)NCCC(C)c1ccccc1` (centres unmarked) [Example 387, 6-(2-amino-[1,2,4]triazolo[1,5-a]pyridin-7-yl)-3-methoxy-N-(3-phenylbutyl)pyridazine-4-carboxamide], the IC50 in assay [1] (setting [5]) is over 200 nM; in assay [2] (setting [4]) it was 20 to 200 nM.
In the case of `Cc1nc(C)c(-c2ccn3nc(N)nc3c2)cc1C(=O)NCc1c(F)cccc1OCC(F)(F)F` [Example 291, 5-(2-amino-[1,2,4]triazolo[1,5-a]pyridin-7-yl)-N-(2-fluoro-6-(2,2,2-trifluoroethoxy)benzyl)-2,6-dimethylnicotinamide], the IC50 in assay [1] (setting [3]) and in assay [2] (setting [4]) was 20 to 200 nM throughout.
With `CCOc1ncc(-c2ccn3nc(N)nc3c2)cc1C(=O)NCc1cc(F)cc(F)c1OCC1CC1` [Example 281, 5-{2-amino-[1,2,4]triazolo[1,5-a]pyridin-7-yl}-N-{[2-(cyclopropylmethoxy)-3,5-difluorophenyl]methyl}-2-ethoxypyridine-3-carboxamide], the IC50 in assay [1] (setting [3]) was 20 to 200 nM; in assay [2] (setting [7]), under 20 nM.
The matching figures for `Cc1ncc(-c2ccn3nc(N)nc3c2)cc1C(=O)NCc1ccccc1OCC1CCCCC1` [Example 230, 5-{2-amino-[1,2,4]triazolo[1,5-a]pyridin-7-yl}-N-{[2-(cyclohexylmethoxy)phenyl]methyl}-2-methylpyridine-3-carboxamide]: 20 to 200 nM and under 20 nM.
Take `COc1ncc(-c2ccn3nc(N)nc3c2)cc1NC(=O)Cc1cccc(C(F)(F)F)c1` [Example 416, N-(5-(2-amino-[1,2,4]triazolo[1,5-a]pyridin-7-yl)-2-methoxypyridin-3-yl)-2-(3-(trifluoromethyl)phenyl)acetamide]: the IC50 in assay [1] (setting [5]) is over 200 nM; in assay [2] (setting [4]) it was 20 to 200 nM.
Turning to `COc1ncc(-c2ccn3nc(N)nc3c2)cc1C(=O)N1CCC[C@@H](Cc2cccc(F)c2)C1` [Example 114, 7-{5-[(3S)-3-[(3-fluorophenyl)methyl]piperidine-1-carbonyl]-6-methoxypyridin-3-yl}-[1,2,4]triazolo[1,5-a]pyridin-2-amine], the IC50 in assay [1] (setting [6]) and in assay [2] (setting [7]) was under 20 nM throughout.
As to `COc1nc(C)c(-c2ccn3nc(N)nc3c2)cc1C(=O)NCc1cc(F)cc(F)c1O[C@H]1CCOC1` [Example 351, (S)-5-(2-amino-[1,2,4]triazolo[1,5-a]pyridin-7-yl)-N-(3,5-difluoro-2-((tetrahydrofuran-3-yl)oxy)benzyl)-2-methoxy-6-methylnicotinamide], the IC50 in assay [1] (setting [6]) and in assay [2] (setting [7]) was under 20 nM each time.
In the case of `COc1cnc(-c2ccn3nc(N)nc3c2)cc1C(=O)NCc1cc(OC(F)(F)F)ccc1F` [Example 388, 2-(2-amino-[1,2,4]triazolo[1,5-a]pyridin-7-yl)-N-(2-fluoro-5-(trifluoromethoxy)benzyl)-5-methoxyisonicotinamide], the IC50 in assay [1] (setting [3]) and in assay [2] (setting [4]) was 20 to 200 nM throughout.
For `Nc1nc2cc(-c3cnc(N)c(C(=O)NCc4c(F)cccc4OCC4CC4)c3)ccn2n1` [Example 53, 2-Amino-5-{2-amino-[1,2,4]triazolo[1,5-a]pyridin-7-yl}-N-{[2-(cyclopropylmethoxy)-6-fluorophenyl]methyl}pyridine-3-carboxamide], the IC50 in assay [1] (setting [3]) is 20 to 200 nM; in assay [2] (setting [7]) it was under 20 nM.
On to `COc1ncc(-c2ccn3nc(N)nc3c2)cc1C(=O)NCc1ccccc1SC(C)C` [Example 143, 5-{2-amino-[1,2,4]triazolo[1,5-a]pyridin-7-yl}-2-methoxy-N-{[2-(propan-2-ylsulfanyl)phenyl]methyl}pyridine-3-carboxamide], for which the IC50 in assay [1] (setting [6]) and in assay [2] (setting [7]) was under 20 nM throughout.
For `Nc1nc2cc(-c3cnc(Cl)c(C(=O)NCc4cccc(OC(F)(F)F)c4)c3)ccn2n1` [Example 167], the IC50 in assay [1] (setting [6]) and in assay [2] (setting [7]) was under 20 nM each time.
In the case of `COc1ncc(-c2ccn3nc(N)nc3c2)cc1C(=O)NCc1cc(F)cc(F)c1OCC1CCCC1` [Example 128, 5-{2-amino-[1,2,4]triazolo[1,5-a]pyridin-7-yl}-N-{[2-(cyclopentylmethoxy)-3,5-difluorophenyl]methyl}-2-methoxypyridine-3-carboxamide], the IC50 in assay [1] (setting [6]) and in assay [2] (setting [7]) was under 20 nM each time.
On to `COc1ncc(-c2ccn3nc(N)nc3c2)cc1C(=O)N1CCCC(C(=O)Cc2ccccc2)C1` (centres unmarked) [Example 427, 1-(1-(5-(2-amino-[1,2,4]triazolo[1,5-a]pyridin-7-yl)-2-methoxynicotinoyl)piperidin-3-yl)-2-phenylethan-1-one], for which the IC50 in assay [1] (setting [3]) and in assay [2] (setting [4]) was 20 to 200 nM in each case.
As to `[2H]C([2H])(NC(=O)c1cc(-c2ccn3nc(N)nc3c2)cnc1Cl)c1cc(OC(F)(F)F)ccc1F` [Example 171, 5-{2-amino-[1,2,4]triazolo[1,5-a]pyridin-7-yl}-2-chloro-N-{[2-fluoro-5-(trifluoromethoxy)phenyl](deutero)methyl}pyridine-3-carboxamide], the IC50 in assay [1] (setting [3]) and in assay [2] (setting [4]) was 20 to 200 nM in each case.
Turning to `CNc1cn2nc(-c3cnc(OC)c(C(=O)N[C@@H](C)c4cc(OC(F)(F)F)ccc4F)c3)ccc2n1` [Example 374, (S)—N-(1-(2-fluoro-5-(trifluoromethoxy)phenyl)ethyl)-2-methoxy-5-(2-(methylamino)imidazo[1,2-b]pyridazin-6-yl)nicotinamide], the IC50 in assay [1] (setting [3]) is 20 to 200 nM; in assay [2] (setting [7]), under 20 nM.
